# Reference: patent US9265706B2, “Lichesterinic acid and the derivatives of same as pigmentation inhibitors” (Centre National de la Recherche Scientifique—CNRS, priority 2012, dated 2016)
# Test system: B16 cells
# Experiment: Melanin content of murine B16 cells by absorbance at 405 nm, related to protein, relative to DMSO control
# Format: cell-based
# Conditions: for depigmenting activity compared with the positive control hydroquinone: FIG. 2, C9LA+ and C5LA+ given by way of indication
# Description: The cells are seeded in a 10 cm Petri dish at a density of 7×10^5 per dish and are incubated for 96 hours, with a defined concentration of lichen-derived molecule, which has been purified and solubilized in DMSO. After treatment, the cells are recovered by treatment with trypsin and washed twice with PBS. The number of cells recovered is estimated by counting using a hemocytometer. One and the same fraction is used to determine the melanin content and the protein concentration. The melanin content is determined by the absorbance at 405 nm (VersaMax Microplate Reader, Molecular Devices, USA) of the cell solution after solubilization of the melanin with 1M sodium hydroxide, for 15 min at 80° C. The protein concentration is determined according to the protocol of the “DC Protein Assay” kit developed by Bio-Rad laboratories, USA. For each sample treated, the melanin content is related to the amount of protein and expressed as a percentage relative to the control situation (DMSO solution alone). Each measurement is carried out in triplicate and each experiment is carried out independently a minimum of 3 times (except for the C9LA+ and C5LA+ derivatives given by way of indication).
# FIGS. 1 and 2 bring together the results. These figures show the melanin content of the B16 cells treated for 96 h in the presence of a given molecule (FIG. 2), or of a (+)-lichesterinic acid ((+)LA)/(+)-protolichesterinic acid ((+)PLA)/(+)-roccellaric acid ((+)RA) mixture in a 60/25/15 weight ratio (FIG. 1).
# Along the x-axis are the molecules tested with their concentrations expressed in μM.
# Along the y-axis, the melanin content is expressed as a percentage relative to the control (DMSO alone=concentration of 0.1%).
# [1] = 96 h incubation, concentrations of 0.5 to 2 μM, relative to control, FIG. 2
molecule,measurement,setting,value
CCCCCCCCCCCCC[C@H]1OC(=O)C(C)=C1C(=O)O [(+)-lichesterinic acid],depigmenting activity compared with the positive control hydroquinone,96 h incubation,greater depigmenting activity
Oc1ccc(O)cc1 [hydroquinone],decrease in the melanin level (depigmenting positive control),"96 h incubation, under the same conditions, concentration not given, FIG. 2",−20%
"CCCCCCCCC[C@H]1OC(=O)C(C)=C1C(=O)O [C9LA+, (+)-3-methyl-5-nonylparaconic acid]",depigmenting activity compared with the positive control hydroquinone,96 h incubation,greater depigmenting activity
"CCCCCCCCCCCCC[C@H]1OC(=O)[C@@H](C)[C@@H]1C(=O)O [roccellaric acid, (+)-roccellaric acid]",decrease in the melanin level,"same conditions, 1 μM, individually isolated product, results not given in figures",not significant
CCCCC[C@H]1OC(=O)C(C)=C1C(=O)O [C5LA+],depigmenting activity compared with the positive control hydroquinone,96 h incubation,comparable depigmenting activity
(+)-protolichesterinic acid [PLA+],decrease in the melanin level,[1],10% to 20%
"CCCCCCCCCCCCC[C@@H]1OC(=O)C(C)=C1C(=O)O [LA−, (−)-lichesterinic acid]",stimulation of melanin production,[1],+10% to +30%
"C=C1C(=O)O[C@H](CCCCCCCCCCCCC)[C@H]1C(=O)O [PLA+, (+)-protolichesterinic acid]",decrease in the melanin level,"same conditions, 0.25 μM, individually isolated product, results not given in figures",about −20%
